The values below come from patent US20110098288A1, “SULFONAMIDES AS ZAP-70 INHIBITORS” (priority 2008, published 2011).

Where a name gives a salt, the structure may show the parent alone.

For this assay, the target named is T1, ZAP-70 (Homo sapiens, UniProt P43403).
T1 construct: endogenous in cells; host or cells: cell lysate
T1 sequence (P43403 1-619): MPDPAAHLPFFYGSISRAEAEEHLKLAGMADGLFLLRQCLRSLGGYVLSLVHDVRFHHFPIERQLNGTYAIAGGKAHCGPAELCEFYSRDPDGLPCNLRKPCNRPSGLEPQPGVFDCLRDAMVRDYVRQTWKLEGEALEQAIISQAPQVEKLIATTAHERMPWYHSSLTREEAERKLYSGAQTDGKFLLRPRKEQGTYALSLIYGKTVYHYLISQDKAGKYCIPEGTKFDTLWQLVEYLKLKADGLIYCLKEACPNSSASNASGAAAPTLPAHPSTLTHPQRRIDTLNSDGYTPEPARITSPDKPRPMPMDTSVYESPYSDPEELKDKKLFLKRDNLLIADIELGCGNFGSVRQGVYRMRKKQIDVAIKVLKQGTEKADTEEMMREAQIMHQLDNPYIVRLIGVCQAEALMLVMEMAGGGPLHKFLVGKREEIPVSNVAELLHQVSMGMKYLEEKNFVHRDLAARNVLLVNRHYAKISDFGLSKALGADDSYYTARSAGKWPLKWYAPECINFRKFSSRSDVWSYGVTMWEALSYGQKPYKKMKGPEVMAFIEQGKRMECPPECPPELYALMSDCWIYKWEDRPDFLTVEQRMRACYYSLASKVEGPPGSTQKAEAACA
The assay is described as follows: ZAP-70 kinobeads assay. It counts as binding. The note with it: competition with immobilized aminopyrido-pyrimidine ligand 24 in cell lysate; ZAP-70 detected by dot blot. As to the method: The compounds of the present invention as described in the previous examples can be tested in the ZAP-70 kinobeads assay as described (EP-A 1862802 and WO-A 2007/137867). Briefly, test compounds (at various concentrations) and the affinity matrix with the immobilized aminopyrido-pyrimidine ligand 24 are added to cell lysate aliquots and allowed to bind to the proteins in the lysate sample. After the incubation time the beads with captured proteins are separated from the lysate. Bound proteins are then eluted and the presence ZAP-70 is detected and quantified using a specific antibody in a dot blot procedure and the Odyssey infrared detection system. Conventionally, ZAP-70 kinase activity can be measured using purified or recombinant enzyme in a solution-based assay with protein or peptide substrates (Isakov et al., 1996, J. Biol. Chem. 271(26), 15753-15761; Moffat et al., 1999, Bioorg. Med. Chem. Letters 9, 3351-3356).
The molecule `CS(=O)(=O)Nc1ccccc1Nc1nc(Nc2cccc(-n3cccn3)c2)ncc1Cl` [Example 206, N-(2-(2-(3-(1H-pyrazol-1-yl)phenylamino)-5-chloropyrimidin-4-ylamino)phenyl)methanesulfonamide] yielded a half-inhibitory concentration (IC50) of 0.1 to 1 µM. With `COc1cc(Nc2ncc(F)c(Nc3ccccc3NS(C)(=O)=O)n2)ccc1Cl` [Example 10, N-(2-(2-(4-chloro-3-methoxyphenylamino)-5-fluoropyrimidin-4-ylamino)phenyl)methanesulfonamide] the figure was 1 to 10 µM; with `CS(=O)(=O)Nc1ccccc1Nc1nc(Nc2cccc(-c3cnco3)c2)ncc1F` [Example 193, N-(2-(5-fluoro-2-(3-(oxazol-5-yl)phenylamino)pyrimidin-4-ylamino)phenyl)methanesulfonamide], 0.1 to 1 µM; with `CS(=O)(=O)Nc1ccccc1Nc1nc(Nc2cccc(OC(F)F)c2)ncc1F` [Example 26, N-(2-(2-(3-(difluoromethoxy)phenylamino)-5-fluoropyrimidin-4-ylamino)phenyl)methanesulfonamide], 1 to 10 µM. The molecule `COc1cc(Nc2ncc([N+](=O)[O-])c(Nc3ccccc3NS(C)(=O)=O)n2)cc(OC)c1OC` [Example 68, N-(2-(5-nitro-2-(3,4,5-trimethoxyphenylamino)pyrimidin-4-ylamino)phenyl)methanesulfonamide] came in with an IC50 of 1 to 10 µM. `CCN(CC)C(=O)COc1cccc(Nc2ncc(F)c(Nc3ccccc3NS(C)(=O)=O)n2)c1` [Example 100, N,N-diethyl-2-(3-(5-fluoro-4-(2-(methylsulfonamido)phenylamino)pyrimidin-2-ylamino)phenoxy)acetamide 2,2,2-trifluoroacetate] registered an IC50 of 0.1 to 1 µM.

Consider `CS(=O)(=O)Nc1ccccc1Nc1nc(Nc2ccc(CC(=O)O)cc2)ncc1Cl` [Example 148, 2-(4-(5-chloro-4-(2-(methylsulfonamido)phenylamino)pyrimidin-2-ylamino)phenyl)acetic acid], for which the IC50 is under 0.1 µM. In turn, `CS(=O)(=O)Nc1ccccc1Nc1nc(Nc2ccccc2)ncc1Br` [Example 102, N-(2-(5-bromo-2-(phenylamino)pyrimidin-4-ylamino)phenyl)methanesulfonamide hydrochloride] showed an IC50 of 0.1 to 1 µM. As to `CS(=O)(=O)Nc1ccccc1Nc1nc(Nc2ccc(-n3cncn3)cc2)ncc1Cl` [Example 212, N-(2-(2-(4-(1H-1,2,4-triazol-1-yl)phenylamino)-5-chloropyrimidin-4-ylamino)phenyl)methanesulfonamide], the half-maximal inhibitory concentration (IC50) was in the range of 0.1 to 1 µM. `CS(=O)(=O)Nc1ccccc1Nc1nc(Nc2ccc3c(c2)OCC(=O)N3)ncc1F` [Example 23, N-(2-(5-fluoro-2-(3-oxo-3,4-dihydro-2H-benzo[b][1,4]oxazin-7-ylamino)pyrimidin-4-ylamino)phenyl)methanesulfonamide] displayed an IC50 of 0.1 to 1 µM. Turning to `Cc1nnnn1-c1ccc(Nc2ncc(F)c(Nc3ccccc3NS(C)(=O)=O)n2)cc1` [Example 199, N-(2-(5-fluoro-2-(4-(5-methyl-1H-tetrazol-1-yl)phenylamino)pyrimidin-4-ylamino)phenyl)methanesulfonamide], the half-inhibitory concentration (IC50) is 0.1 to 1 µM. With `CS(=O)(=O)Nc1ccccc1Nc1nc(Nc2ccc(-n3cncn3)cc2)ncc1F` [Example 198, N-(2-(2-(4-(1H-1,2,4-triazol-1-yl)phenylamino)-5-fluoropyrimidin-4-ylamino)phenyl)methanesulfonamide] the figure was 0.1 to 1 µM; with `CN(c1ccccc1Nc1nc(Nc2ccc(OCCN3CCCCC3)cc2)ncc1F)S(C)(=O)=O` [Example 110, N-(2-(5-fluoro-2-(4-(2-(piperidin-1-yl)ethoxy)phenylamino)pyrimidin-4-ylamino)phenyl)-N-methylmethanesulfonamide], 0.1 to 1 µM. The molecule `COc1cc(Nc2ncc(F)c(Nc3ccccc3NS(=O)(=O)c3ccccc3)n2)cc(OC)c1OC` [Example 47, N-(2-(5-fluoro-2-(3,4,5-trimethoxyphenylamino)pyrimidin-4-ylamino)phenyl)benzenesulfonamide] yielded a 50% inhibitory concentration (IC50) of 1 to 10 µM.

In turn, `CCOC(=O)COc1ccc(Nc2ncc(F)c(Nc3ccccc3NS(C)(=O)=O)n2)cc1` [Example 144, Ethyl 2-(4-(5-fluoro-4-(2-(methylsulfonamido)phenylamino)pyrimidin-2-ylamino)phenoxy)acetate hydrochloride] showed a half-maximal inhibitory concentration (IC50) of 1 to 10 µM. Regarding `Cc1nc(-c2ccc(Nc3ncc(F)c(Nc4ccccc4NS(C)(=O)=O)n3)cc2)cs1` [Example 192, N-(2-(5-fluoro-2-(4-(2-methylthiazol-4-yl)phenylamino)pyrimidin-4-ylamino)phenyl)methanesulfonamide], the half-maximal inhibitory concentration (IC50) lay in the range of 1 to 10 µM. As to `COc1ccc(Nc2nc(Nc3ccc(OC)c(OC)c3)ncc2F)c(NS(C)(=O)=O)c1` [Example 180, N-(2-(2-(3,4-dimethoxyphenylamino)-5-fluoropyrimidin-4-ylamino)-5-methoxyphenyl)methanesulfonamide], the IC50 is under 0.1 µM.

For the molecule `CN(C)C(=O)c1cccc(Nc2ncc(F)c(Nc3ccccc3NS(C)(=O)=O)n2)c1` [Example 84, 3-(5-fluoro-4-(2-(methylsulfonamido)phenylamino)pyrimidin-2-ylamino)-N,N-dimethylbenzamide], the IC50 lay within 0.1 to 1 µM. Molecule `CS(=O)(=O)Nc1ccccc1Nc1nc(Nc2cccc(-n3cncn3)c2)ncc1Cl` [Example 211, N-(2-(2-(3-(1H-1,2,4-triazol-1-yl)phenylamino)-5-chloropyrimidin-4-ylamino)phenyl)methanesulfonamide] returned a 50% inhibitory concentration (IC50) of 0.1 to 1 µM. The result for `Cn1ccc(-c2cccc(Nc3ncc(F)c(Nc4ccccc4NS(C)(=O)=O)n3)c2)n1` [Example 201, N-(2-(5-fluoro-2-(3-(1-methyl-1H-pyrazol-3-yl)phenylamino)pyrimidin-4-ylamino)phenyl)methanesulfonamide] reads 1 to 10 µM; that for `CS(=O)(=O)Nc1ccccc1Nc1nc(Nc2ccc(-n3cccn3)cc2)ncc1Cl` [Example 207, N-(2-(2-(4-(1H-pyrazol-1-yl)phenylamino)-5-chloropyrimidin-4-ylamino)phenyl)methanesulfonamide], 0.1 to 1 µM; that for `COc1cc(Nc2ncc(F)c(Nc3cc(F)c(F)cc3NS(C)(=O)=O)n2)cc(OC)c1OC` [Example 174, N-(4,5-difluoro-2-(5-fluoro-2-(3,4,5-trimethoxyphenylamino)pyrimidin-4-ylamino)phenyl)methanesulfonamide], 1 to 10 µM.

In the case of `Cc1nc(-c2cccc(Nc3ncc(Cl)c(Nc4ccccc4NS(C)(=O)=O)n3)c2)no1` [Example 208, N-(2-(5-chloro-2-(3-(5-methyl-1,2,4-oxadiazol-3-yl)phenylamino)pyrimidin-4-ylamino)phenyl)methanesulfonamide], the IC50 lay within 0.1 to 1 µM. `CS(=O)(=O)Nc1ccccc1Nc1nc(Nc2cccc(C#N)c2)ncc1Cl` [Example 205, N-(2-(5-chloro-2-(3-cyanophenylamino)pyrimidin-4-ylamino)phenyl)methanesulfonamide]: the IC50 was 0.1 to 1 µM. With `COc1ccc(Nc2nc(Nc3ccc(OC)c(OC)c3)ncc2Cl)c(NS(C)(=O)=O)c1` [Example 153, N-(2-(5-chloro-2-(3,4-dimethoxyphenylamino)pyrimidin-4-ylamino)-5-methoxyphenyl)methanesulfonamide] the figure was under 0.1 µM. The result for `CS(=O)(=O)Nc1ccccc1Nc1nc(Nc2cccc(OCCN3CCNCC3)c2)ncc1Cl` [Example 133, N-(2-(5-chloro-2-(3-(2-(piperazin-1-yl)ethoxy)phenylamino)pyrimidin-4-ylamino)phenyl)methanesulfonamide trifluoroacetate] reads under 0.1 µM. With `CS(=O)(=O)Nc1ccccc1Nc1nc(Nc2cccc(-n3cccn3)c2)ncc1F` [Example 17, N-(2-(2-(3-(1H-pyrazol-1-yl)phenylamino)-5-fluoropyrimidin-4-ylamino)phenyl)methanesulfonamide] the figure was 1 to 10 µM.

In turn, `COc1cc(Nc2ncc(F)c(Nc3ccccc3NS(C)(=O)=O)n2)ccc1C` [Example 73, N-(2-(5-fluoro-2-(3-methoxy-4-methylphenylamino)pyrimidin-4-ylamino)phenyl)methanesulfonamide] registered an IC50 of 0.1 to 1 µM.

Consider `COc1cc(Nc2ncc(F)c(Nc3cccc(NS(=O)(=O)CCN(C)C)c3)n2)cc(OC)c1OC` [Example 65, 2-(Dimethylamino)-N-(3-(5-fluoro-2-(3,4,5-trimethoxyphenylamino)pyrimidin-4-ylamino)phenyl)ethanesulfonamide], for which the 50% inhibitory concentration (IC50) was 1 to 10 µM.
